Measured values taken from article PMC10726347, “Discovery of Inhibitory Fragments That Selectively Target Spire2–FMN2 Interaction” (Journal of Medicinal Chemistry, 2023).
pIC50: −log10 of the molar value. Where two headings read alike, the source gives them in different places.

How the values were obtained:
KIND1 [1] = target: T1, KIND1 (Homo sapiens, UniProt Q08AE8); assay: Binding to KIND1 (method not given)
T1 construct: His6 (N, cleaved yes); made in house; host or cells: E. coli BL21 (DE3)
T1 sequence (Q08AE8 36-236): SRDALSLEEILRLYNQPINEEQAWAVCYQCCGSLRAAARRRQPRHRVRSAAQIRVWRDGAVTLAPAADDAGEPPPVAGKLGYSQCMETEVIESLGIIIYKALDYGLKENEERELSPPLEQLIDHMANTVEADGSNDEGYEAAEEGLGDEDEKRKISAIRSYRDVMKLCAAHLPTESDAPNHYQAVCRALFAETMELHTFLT

KIND1 [2] = target: T1, KIND1; assay: FP competition assay with FITC-labeled FSI peptide, KIND1; type: binding; conditions: 2.44-2500 μM, 1.17 μM KIND1
Method: (§1) The probe was diluted in the buffer assay (25 mM Tris, pH 7.8, 100 mM NaCl, 2 mM DTT) and added to the preplated mixtures of protein/fragment solutions. […] Each experiment was performed in triplicate with four technical replications.
(§2) Establishment of fluorescence polarization assay
(§3) The establishment of the fluorescence polarization assay was done according to protocols […]
(§4) In the first step, the affinity of the fluorescently labelled reporter peptide (FSI-peptide, FITC- […]
(§5) concentrations of KIND1 or KIND2 domains. This yielded dose-response curves that allow us to calculate the Kd of FSI-peptide.
(§6) In the next step, the working concentration of the proteins was calculated. Typically, the concentration should be in a dynamic range (0.5-0.8). For calculations, the following equation f0 = (P − Pmin)/(Pmax − Pmin)
(§7) P – fluorescence polarization in the dynamic range (0.5 -0.8) , Pmin – average minimal fluorescence polarization, Pmax – average maximal fluorescence polarization,
(§8) Taking into account Kd values for the reporter peptide, the working concentration of the proteins were calculated as follows:
(§9) c = Kd(P − Pmin)/(Pmax − P) […]

KIND2 [3] = target: T2, KIND2 (Homo sapiens, UniProt Q8WWL2); assay: FP competition assay with FITC-labeled FSI peptide, KIND2; type: binding; parameters: His6 (N, cleaved yes); made in house; host or cells: E. coli BL21 (DE3); conditions: for KIND2/FSI inhibitory activity in words: FP assay; for pIC50: FP competition
T2 sequence (Q8WWL2 18-207): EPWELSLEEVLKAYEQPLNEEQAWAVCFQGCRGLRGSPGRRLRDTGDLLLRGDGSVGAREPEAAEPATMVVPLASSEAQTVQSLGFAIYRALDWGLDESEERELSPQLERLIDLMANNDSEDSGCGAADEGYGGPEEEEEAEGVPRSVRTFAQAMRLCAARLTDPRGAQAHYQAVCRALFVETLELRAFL
Method: as §1, §2, §3, §4, §5, §6, §7, §8, §9

KIND1 [4] = target: T1, KIND1; assay: Differential scanning fluorimetry (DSF) thermal shift, KIND1; type: binding; conditions: 1 mM fragment, 2% DMSO
KIND2 [5] = target: T2, KIND2; assay: Differential scanning fluorimetry (DSF) thermal shift, KIND2
[6] = 2.44-2500 μM, 2.49 μM KIND2, read-out: KIND2 IC50

| SMILES | pIC50 (KIND1 [2]) | pIC50 (KIND2 [3]; [6]) | pIC50 (KIND2 [3]; Table 2, KIND2, read-out: IC50) | ΔTm at 1000 µM (KIND2 [5]; read-out: ΔTm) [°C] | also measured |
| --- | --- | --- | --- | --- | --- |
| Clc1ccc2c(N3CCNCC3)ccnc2c1 [F671] | < 2.60 | < 2.60 |  |  | KIND2/FSI inhibitory activity in words (KIND2 [3]): complete drop in potency; ΔTm at 1000 µM (KIND1 [4]): -1 °C; ΔTm at 1000 µM (KIND2 [5]; read-out: KIND2 ΔTm): -2 °C |
| OCCNc1ccnc2cc(Cl)ccc12 [compound 1, 2-((7-Chloroquinolin-4-yl)amino)ethan-1-ol] | < 2.60 | < 2.60 |  |  |  |
| CN(C)CCNc1ccnc2cc(Cl)ccc12 [compound 2, N^1-(7-Chloroquinolin-4-yl)-N^2,N^2-dimethylethane-1,2-diamine] | < 2.60 | < 2.60 |  |  | KIND2/FSI inhibitory activity in words (KIND2 [3]): loss of potency |
| N[C@H]1CCN(c2ccnc3cc(Cl)ccc23)C1 [compound 3, (S)-1-(7-Chloroquinolin-4-yl)pyrrolidin-3-amine] | < 2.60 | < 2.60 |  |  |  |
| N[C@@H]1CCN(c2ccnc3cc(Cl)ccc23)C1 [compound 4, (R)-1-(7-Chloroquinolin-4-yl)pyrrolidin-3-amine] | < 2.60 | < 2.60 |  |  |  |
| N[C@H]1CCCN(c2ccnc3cc(Cl)ccc23)C1 [compound 5, (3S)-1-(7-Chloroquinolin-4-yl)piperidin-3-amine] | < 2.60 | < 2.60 |  |  |  |
| N[C@@H]1CCCN(c2ccnc3cc(Cl)ccc23)C1 [compound 6, (3R)-1-(7-Chloroquinolin-4-yl)piperidin-3-amine] | < 2.60 | < 2.60 |  |  |  |
| Clc1ccc2c(N[C@H]3CCCNC3)ccnc2c1 [compound 7, (S)-7-Chloro-N-(piperidin-3-yl)quinolin-4-amine] | < 2.60 | < 2.60 |  |  |  |
| Clc1ccc2c(N[C@@H]3CCCNC3)ccnc2c1 [compound 8, (R)-7-Chloro-N-(piperidin-3-yl)quinolin-4-amine] | < 2.60 | < 2.60 |  |  |  |
| NCCNc1ccnc2cc(C(F)(F)F)ccc12 [compound 9, N^1-(7-(Trifluoromethyl)quinolin-4-yl)ethane-1,2-diamine] |  |  | < 2.60 | -0.4 |  |
| Cc1ccc2c(NCCN)ccnc2c1 [compound 10, N^1-(7-Methylquinolin-4-yl)ethane-1,2-diamine] |  |  | < 2.60 | 2 |  |
| NCCNc1ccnc2cc(Br)ccc12 [compound 11, N^1-(7-Bromoquinolin-4-yl)ethane-1,2-diamine] |  |  | < 2.60 | 1.2 |  |
| NCCNc1ccnc2cc(Oc3ccccc3)ccc12 [compound 15, N^1-(7-Phenoxyquinolin-4-yl)ethane-1,2-diamine] |  |  | < 2.60 | -0.1 |  |
| NCCNc1ccnc2cc(OCc3ccccc3)ccc12 [compound 16, N^1-[7-(Benzyloxy)quinolin-4-yl]ethane-1,2-diamine] |  |  | < 2.60 | 0 |  |
| NCCNc1ccnc2c(Cl)cccc12 [compound 17, N^1-(8-Chloroquinolin-4-yl)ethane-1,2-diamine] |  |  | < 2.60 | 0.8 | KIND2/FSI inhibitory activity in words (KIND2 [3]): complete loss of activity |
| NCCNc1ccnc2c(F)cccc12 [compound 18, N^1-(8-Fluoroquinolin-4-yl)ethane-1,2-diamine] |  |  | < 2.60 | 0.8 | KIND2/FSI inhibitory activity in words (KIND2 [3]): complete loss of activity |

Continued, in another order:

| pIC50 (KIND1 [2]) | pIC50 (KIND2 [3]; [6]) | pIC50 (KIND2 [3]; Table 2, KIND2, read-out: IC50) | ΔTm at 1000 µM (KIND2 [5]; read-out: ΔTm) [°C] | SMILES | also measured |
| --- | --- | --- | --- | --- | --- |
| < 2.60 |  |  |  | NCCNc1ccnc2cc(Cl)ccc12 [F408, N^1-(7-Chloroquinolin-4-yl)ethane-1,2-diamine] | binding to KIND1 (KIND1 [1]): did not bind |
| < 2.60 |  |  |  | NCCCNc1ccnc2cc(Cl)ccc12 [F409] |  |
| < 2.60 | < 2.60 |  |  | OCCCNc1ccnc2cc(Cl)ccc12 [F410] | KIND2/FSI inhibitory activity in words (KIND2 [3]): complete loss in activity; ΔTm at 1000 µM (KIND1 [4]): -0.4 °C; ΔTm at 1000 µM (KIND2 [5]; read-out: KIND2 ΔTm): -0.5 °C |
| < 2.60 |  |  |  | CN(C)CCCNc1ccnc2cc(Cl)ccc12 [F666] |  |
| < 2.60 |  |  |  | NCCCCNc1ccnc2cc(Cl)ccc12 [F667] |  |
| < 2.60 | < 2.60 |  |  | Nc1ccnc2cc(Cl)ccc12 [F668] | ΔTm at 1000 µM (KIND1 [4]): -0.4 °C; ΔTm at 1000 µM (KIND2 [5]; read-out: KIND2 ΔTm): -1 °C |
| < 2.60 | < 2.60 |  |  | Clc1ccc2c(NCCCN3CCOCC3)ccnc2c1 [F669] | KIND2/FSI inhibitory activity in words (KIND2 [3]): complete drop in potency; ΔTm at 1000 µM (KIND1 [4]): -0.5 °C; ΔTm at 1000 µM (KIND2 [5]; read-out: KIND2 ΔTm): -1 °C |
